Laboratory results: US12600713B2, “Crystalline forms of 6-((6,7-dimethoxyquinazolin-4-yl)oxy)-N,2-dimethylbenzofuran-3-carboxamide” (HUTCHMED LIMITED, priority 2014, dated 2026)

Test: Stability of Form I under high temperature, high humidity and illumination conditions (influence factor experiment, 10 days)
Type: physicochemical
Experimental: Determination method: the test sample of Form I prepared in Example 1 was added to a culture dish, which was uncovered and put in a sealed clean container; then the container was placed under the conditions of the temperature of 60° C., the temperature of 25° C. and the relative humidity of 92.5%±5%, and the illumination of 4500 lx±500 lx respectively for 10 days; then sampled, investigated the purity and crystalline form of the sample, and compared the results of the investigation, which were shown in the following table.

Purity A% (0 day (initial sample, Form I of Example 1)): 98.94 A% | Purity A% (25° C., relative humidity 92.5 ± 5% RH, open dish, 10 days): 98.94 A% | Purity A% (60° C., open dish, 10 days): 98.94 A% | chemical purity and crystalline form after storage (stability conclusion) (high temperature, high humidity and illumination conditions for 10 days): not changed | Purity A% (illumination 4500 lx ± 500 lx, open dish, 10 days): 98.94 A%
SMILES: CNC(=O)c1c(C)oc2cc(Oc3ncnc4cc(OC)c(OC)cc34)ccc12 [Form I, 6-((6,7-dimethoxyquinazolin-4-yl)oxy)-N,2-dimethylbenzofuran-3-carboxamide]
